Assay results: patent publication US20200113902A1, “COMPOSITIONS AND METHODS FOR TREATING CANCERS WITH COVALENT INHIBITORS OF CYCLIN-DEPENDENT KINASE 7 (CDK7)” (Syros Pharmaceuticals, Inc., priority 2017, published 2020)

Legend:
[1] = tested on: ovarian carcinoma PDX models (OV5387, OV14702, OV14972, OV15398, OV15576, OV15696, OV15612, OV15631); experiment: Ovarian carcinoma patient-derived xenografts (eight models), tumor volume; assay type: in vivo, mouse; settings: 40 mg/kg or 30 mg/kg i.v. BIW; four did not respond
Description: (§1) Patient-derived xenograft (PDX) models from ovarian carcinoma patients (OV5387, OV14702, OV14972, OV15398, OV15576, OV15696, OV15612, OV15631) were established in NOD-SCID mice at Crown Bioscience (San Diego, USA). Cryo vials containing tumor cells were thawed and prepared for injection into mice. Cells were washed in PBS, counted, and resuspended in cold PBS at a concentration of 50,000-100,000 viable cells/100 ul. Cell suspensions were mixed with an equal volume of Cultrex ECM and kept on ice during transport to the vivarium. Cells were prepared for injections by withdrawing ECM-Cell mixture into a chilled slip-tip syringe fitted with a 26G 7/8 (0.5 mm×22 mm) needle. The filled syringes were kept on ice to avoid the solidification of ECM. Each mouse was inoculated subcutaneously in the right flank with 200 uL of the cell suspension. Tumor sizes were measured in two dimensions using a caliper, and the volumes were expressed in mm3 using the formula: V=0.5 a×b^2 where a and b are the longest and shortest diameters of the tumor, respectively. Compound 1 treatment was started when the average tumor size reached 150-200 mm^3.
(§2) Compound 1 was formulated in w/v 20% Captisol (pH 4-6) and administered by i.v. twice weekly (BIW) at a final dose of 40 mg/kg or 30 mg/kg in a 10 ml/kg volume. Tumor volumes were measured twice weekly over the course of the study. […]

[2] = tested on: homologous recombination deficiency / carboplatin sensitivity genes in A2780 cells; experiment: Nanostring PanCancer Pathways mRNA, A2780; assay type: cell-based; settings: 50 nM, 16 hours
Description: Ovarian Cell lines OvCar3, TOV21G, A2780 and COV318 were plated at 500,000 cells/well in a 6-well plate the day before treatment. The next day the cells were treated with vehicle or 50 nM Compound 1 for 0, 6, or 16 hours after which cells were harvested and total RNA collected using RNeasy mini kit (Qiagen). Changes in mRNA between samples were analyzed with Nanostring™ PanCancer Pathways Panels specifically analyzing genes related to homologous recombination deficiency and carboplatin sensitivity (ie. BRCA1, BRCA2, Rad51, ATM, ATR, MSH2, MSH6). Nanostring signal intensities were first normalized to housekeeping genes across all cell lines, and then normalized to the 0 hour timepoint within a cell line.

MDA-MB-468 cells = experiment: Growth rate (GR) inhibition, Cell Titer Glo 2.0, MDA-MB-468; assay type: cell-based, human; settings: concentrations greater than 100 nM, 72 hours
Description: To determine the effect of Compound 1 on the growth of TNBC cancer cells, four different human TNBC cell lines were used—HCC70, MDA-MB-468, MDA-MB-453 and CAL120. Cells from each cell line were plated separately at 50,000 cells/mL (100 uL per well) in a black-walled 96 well plate and allowed to adhere overnight. In parallel, cells were plated in a separate day 0 plate to measure the number of cells present upon compound addition. The next day, Compound 1 was added to the wells with an HP 300e compound dispenser in a 10-point serial dilution and cells incubated for 72 hours. On the same day Cell Titer Glo 2.0 reagent was added to the day 0 plate, and the luminescence measured with an Envision plate reader per manufacture protocol. After 72 hours Cell Titer Glo 2.0 reagent was added to the plates and the luminescence measured. GR curves were calculated as follows: […]
wherein x(c) is the Compound 1 treatment luminescence); x0 is the average Day 0 luminescence); and xctrl is the average DMSO treatment luminescence, and graphed using Graph Pad Prism. A GR value of 1 indicates no growth inhibition; GR values between 0 and 1 indicate partial growth inhibition; a GR value of 0 indicates cytostasis (no change from baseline); GR values less than 0 indicate cytotoxicity (cell number less than baseline); a GR value of −1 indicates complete cell loss.

OV15696 xenograft = experiment: Ovarian PDX OV15696, tumor volume; assay type: in vivo, mouse; settings: 40 or 30 mg/kg i.v. BIW
Description: as §1, §2

[3] = tested on: gene expression in MDA-MB468 cells; experiment: Gene expression profiling via RNA-seq (DESeq2, linear model), MDA-MB468; assay type: cell-based; settings: four hours, JQ1 125 nM, Compound 1 25 nM
Description: In addition, we compared the ability of JQ1 alone, Compound 1 alone, and a combination of JQ1 and Compound 1 to modify expression of various genes in two breast cancer cell lines. Two triple-negative breast cancer cell lines (HCC70 and MDA-MB468) were tested. The cell lines were treated with JQ1, Compound 1, the JQ1/Compound 1 combination, or DMSO for four hours, after which gene expression profiling via RNA-seq was performed. JQ1 was administered to the cells at a 125 nM final concentration in both single agent and combination experiments. Compound 1 was administered to the cells at a 25 nM final concentration in both single agent and combination experiments. Each experiment was performed in triplicate. One replicate of MDA-MB-468 treated with single-agent JQ1 was excluded from further analysis due to quality.
We employed DESeq2 (Love et al., Genome Biology, 15(12):550, 2014) to identify changes in gene expression due to the JQ1, Compound 1, and JQ1-Compound 1 combination treatment compared to the control DMSO condition based on the RNA-seq data. Genes resulting in a p-value below 0.01 and an absolute logFoldChange above 0.5 were considered to be differentially expressed. […] The same is true for 1459 of 2414 genes in MDA-MB468.
To identify the genes whose expression is impacted synergistically by the drug combination, we modeled the effect of each drug treatment on expression using a linear model. The expression of each gene after the combination treatment can be thought of as the combined impact of Compound 1, JQ1, and any synergistic interaction between the drug treatments on baseline gene expression. A linear model used to describe this relationship could therefore be represented as:
Gene Expression after combination treatment=Baseline Expression+Compound 1 effect+JQ1 effect+Combination effect (Synergistic Impact)
By fitting the expression data for each gene using this model, we were able to evaluate the effect of each treatment, and identify cases where a synergistic interaction between Compound 1 and JQ1 impacts final gene expression. After fitting the linear model to each gene, the weight and p-value of each term can be evaluated. The combination term's weight signifies the mean change resulting from a synergetic impact on expression, with a negative weight indicating synergistic downregulation. Its associated p-value represents the probability that the combination term is not relevant to final gene expression. Using this approach, we identified 1806 genes in HCC70 and 2205 genes in MDA-MB468 whose expression change in the combination treatment was synergistic and whose associated p-value was less than a threshold cutoff of 0.01. The expression of these synergistic genes could not be explained by an additive effect of Compound 1 and JQ1 alone.

CN(C)C/C=C/C(=O)Nc1ccc(C(=O)N[C@@]2(C)CCC[C@@H](Nc3ncc(Cl)c(-c4c[nH]c5ccccc45)n3)C2)nc1 [Compound 1, N-((1S,3R)-3-(5-chloro-4-(1H-indol-3-yl)pyrimidin-2-ylamino)-1-methylcyclohexyl)-5-((E)-4-(dimethylamino)but-2-enamido)picolinamide]
Response to treatment across eight ovarian PDX models (tumor growth vs historical untreated) [1]: four of the xenografts responded to treatment | mRNA of genes related to homologous recombination deficiency and carboplatin sensitivity, all genes except Rad51 (BRCA1, BRCA2, ATM, ATR, MSH2, MSH6) [2]: downregulated | Inhibition of growth (GR curve) (MDA-MB-468 cells): almost complete inhibition of growth | Response to treatment (tumor growth) (OV15696 xenograft): non-responders | Average Expression (TPM) FOXC1 ([3]; DMSO 33.731): 25.556 TPM | Average Expression (TPM) GATA3 ([3]; DMSO 34.244): 21.773 TPM | Average Expression (TPM) TGIF1 ([3]; DMSO 145.88): 134.08 TPM
